# Measured values published in US20230405134A1, “NOVEL PROTAC CHIMERIC COMPOUND, AND PHARMACEUTICAL COMPOSITION COMPRISING SAME FOR PREVENTING, AMELIORATING, OR TREATING DISEASES THROUGH TARGET PROTEIN DEGRADATION” (POSTECH RESEARCH AND BUSINESS DEVELOPMENT FOUNDATION, priority 2020, published 2023).
# Where a SMILES comes first, the peptide text is derived from it. Bridges are numbered along the chain shown (N, C = ends). [ ]: non-standard residue; d: D form. Cha = N[C@@H](CC1CCCCC1)C(=O)O; S5 = C=CCCC[C@](C)(N)C(=O)O
# B1: RLAA tetrapeptide (peptide)
# peptide: RLAA
# notes: also called RLAA peptide; N-degron tetrapeptide
# Experiments:
# E-cadherin = E-cadherin mRNA level by RT-qPCR in MDA-MB-231 cells; assay type: cell-based, human; conditions: 12 hours
# From the text: (§1) The pharmacological effects on SRC-1 dependent signal transmission were explored using the previously discovered SRC-1 degrading substance. The SRC-1 is overexpressed in various cancers and plays a pivotal role in increasing cell migration and invasion by regulating the expression of related genes. Therefore, when treated with ND1-YL2, an SRC-1 degrading substance, the expression of genes stimulated by SRC-1, such as colony stimulating factor-1 (CSF-1), a gene encoding the cytokine CSF-1 that induces cell differentiation and migration, will be suppressed. To confirm this, MDA-MB-231 cells were treated with DMSO and various concentrations of ND1-YL2, YL2 or N-degron tetrapeptide for 12 hours, and the mRNA level of CSF-1 was normalized to 18S level. Confirmation was made using quantitative real-time polymerase chain reaction (RT-qPCR). MDA-MB-231 cells were seeded at 2×10^5 cells per well. After 24 hours, compounds (YL2, RLAA or ND1-YL2) were treated in Opti-MEM medium for 12 hours. Subsequently, general mRNA isolation was performed using TRI reagent (Takara), and total mRNA was isolated from the cells. The absorbance of total mRNA was measured with a Tecan F200 Nanophotometer, and reverse transcription was performed using AccuPower RocketScript Cycle RT PreMix (Bioneer). Quantitative real-time PCR for CSF-1, E-Cadherin and 18S was performed using a StepOnePlus Real-Time PCR System and SYBR Green mix (Applied Biosystems) according to the manufacturer's manual.
# In addition, the effect of the ND1-YL2 on the expression of E-cadherin, a tumor suppressor gene that plays an important role in cell-cell adhesion, was tested. Since SRC-1 protein is known to suppress the E-cadherin expression, the ND1-YL2 will upregulate the E-cadherin by degrading SRC-1.
# MDA-MB-231 cells [1] = assay: Gap closure migration assay; assay type: cell-based, human; conditions: 20 μM, 72 hours
# Method: Based on the results that the SRC-1 degradation effectively affects the transcription mediated by SRC-1 (FIGS. 18A and 18B), it was predicted that ND1-YL2 would exert an inhibitory effect on downstream signaling pathways such as increased cancer cell migration and invasion. To test this, we first performed a gap closure migration assay using an invasive MDA-MB-231 cell line. MDA-MB-231 cells (70 μL of 4×10^5 cells/mL) were seeded in culture insert 2 wells (ibidi, 80209) pre-inserted into p-dishes (ibidi) under the conditions of 37° C. and 5% CO2. The culture insert 2 wells was gently removed with sterile tweezers. The cells were treated with DMSO, YL2 (20 […]), RLAA (20 μM) or ND1-YL2 (20 μM) in Opti-MEM medium for 72 hours. Images were obtained by a camera (Olympus) attached to an optical microscope. The cells were grown in the culture insert wells, and the inserts were removed to create intercellular gaps inside the wells. Subsequently, after treated with DMSO, YL2, RLAA peptide or ND1-YL2, the cells were cultured for 72 hours and the degree of cell migration was observed. The cell migration was quantified by analyzing the images of cells filling the gap.
# SRC-1 = SRC-1 (Homo sapiens, UniProt Q15788); assay: SRC-1 expression level in MDA-MB-231 cells by Western blot; assay type: cell-based; parameters: endogenous in cells; host or cells: MDA-MB-231; conditions: 20 μM, 12 hours
# Chain of SRC-1 (Q15788 whole entry): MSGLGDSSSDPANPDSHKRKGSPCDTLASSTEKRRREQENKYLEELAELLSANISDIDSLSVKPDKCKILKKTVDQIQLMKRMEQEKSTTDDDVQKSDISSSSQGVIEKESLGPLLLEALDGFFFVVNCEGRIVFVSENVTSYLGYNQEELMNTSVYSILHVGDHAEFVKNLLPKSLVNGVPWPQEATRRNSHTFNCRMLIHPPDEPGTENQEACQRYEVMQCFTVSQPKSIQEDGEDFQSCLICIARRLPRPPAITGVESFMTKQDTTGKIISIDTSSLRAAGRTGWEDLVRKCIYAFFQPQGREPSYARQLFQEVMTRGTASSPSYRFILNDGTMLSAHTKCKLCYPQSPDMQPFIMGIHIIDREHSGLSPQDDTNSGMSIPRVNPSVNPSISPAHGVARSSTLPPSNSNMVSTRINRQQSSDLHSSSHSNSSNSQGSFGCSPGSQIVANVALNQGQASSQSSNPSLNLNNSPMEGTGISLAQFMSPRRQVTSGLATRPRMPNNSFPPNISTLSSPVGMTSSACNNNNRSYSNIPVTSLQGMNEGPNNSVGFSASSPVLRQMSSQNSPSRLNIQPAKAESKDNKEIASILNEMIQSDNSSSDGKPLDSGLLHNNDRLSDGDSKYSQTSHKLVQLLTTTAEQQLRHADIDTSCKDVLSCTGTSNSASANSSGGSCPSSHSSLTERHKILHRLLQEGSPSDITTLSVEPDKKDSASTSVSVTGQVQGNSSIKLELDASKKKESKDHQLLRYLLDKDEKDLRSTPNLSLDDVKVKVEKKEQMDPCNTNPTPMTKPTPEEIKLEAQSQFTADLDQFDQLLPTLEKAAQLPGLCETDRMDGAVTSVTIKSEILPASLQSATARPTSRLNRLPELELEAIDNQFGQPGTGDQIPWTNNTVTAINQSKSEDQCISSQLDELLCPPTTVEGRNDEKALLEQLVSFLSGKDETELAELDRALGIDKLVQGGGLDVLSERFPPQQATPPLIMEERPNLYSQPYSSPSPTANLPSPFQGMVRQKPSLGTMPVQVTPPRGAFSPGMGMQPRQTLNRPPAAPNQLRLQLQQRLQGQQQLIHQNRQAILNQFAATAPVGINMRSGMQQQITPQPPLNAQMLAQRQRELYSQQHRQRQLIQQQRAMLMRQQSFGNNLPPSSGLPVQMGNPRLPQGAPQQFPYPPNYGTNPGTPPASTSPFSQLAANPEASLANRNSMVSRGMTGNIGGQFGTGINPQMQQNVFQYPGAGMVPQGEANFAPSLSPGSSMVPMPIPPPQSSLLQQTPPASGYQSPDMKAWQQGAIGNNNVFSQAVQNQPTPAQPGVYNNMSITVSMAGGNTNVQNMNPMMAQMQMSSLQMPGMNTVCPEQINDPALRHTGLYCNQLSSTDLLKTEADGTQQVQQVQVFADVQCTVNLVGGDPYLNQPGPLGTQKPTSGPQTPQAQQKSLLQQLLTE
# MDA-MB-231 cells [2] = assay: Matrigel invasion assay; assay type: cell-based, human; conditions: 24 hours; ND1-YL2 various concentrations, YL2 and RLAA 20 μM
# Method: The inhibition of cell migration may be due to the inhibitory effect of ND1-YL2 on cell growth. In order to exclude this possibility, the invasive ability of cells treated with ND1-YL2 was confirmed. A Corning Matrigel insert (Corning) was placed in a 24-well plate. After hydrating the Matrigel insert with an FBS-free DMEM medium for 2 hours in a CO2 incubator, MDA-MB-231 cells were cultured in the Matrigel insert (4×10^4 cells/insert) with 125 μL of Opti-MEM medium. Another 125 μl of compound containing Opti-MEM medium was added to the insert. The lower chamber was filled with 500 μL of DMEM medium containing 10% FBS. The Matrigel chamber was cultured for 24 hours under the conditions of 37° C. and 5% CO2. The cell culture media of the upper and lower chambers were removed and washed three times with cold DPBS. Non-invasive cells were then removed with a cotton swab. The bottom of the chamber was fixed with 4% formaldehyde for 10 minutes at room temperature, and stained with Hoechst 33342 (5 μg/mL) for 5 minutes in a CO2 incubator. After washed with DPBS, images of infiltrated cells were obtained by a fluorescence microscope. The percentage of the invasive cells was calculated using the product manual. MDA-MB-231 cells were treated with various concentrations of ND1-YL2, N-degron (20 μM) or YL2 (20 μM). After 24 hours, images of the invaded cells were obtained by a fluorescence microscope, and the number of invaded cells was quantified through the images. […] The inhibitory activity of ND1-YL2 on cell migration and invasion is in good agreement with previous SRC-1 knockdown experiments.
# CSF-1 = CSF-1 mRNA level by RT-qPCR in MDA-MB-231 cells; assay type: cell-based, human; conditions: 12 hours
# From the text: as §1
# [3] = molecular target: T1, UBR box (residues 113-194) in the UBR1 E3 ubiquitin ligase of S. cerevisiae (S. cerevisiae, UniProt P19812 113-194); assay: competitive fluorescence polarization on the UBR box (as the sentence implies; the origin of the value is not stated)
# T1 construct: range 113-194; Expressed and purified as in Nat; Struct; Mol. Biol. 2010, 17, 1175-1181
# T1 sequence (looked up): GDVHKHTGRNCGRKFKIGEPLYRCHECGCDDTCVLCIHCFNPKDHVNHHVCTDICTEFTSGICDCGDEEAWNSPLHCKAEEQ
Molecule,Effect on E-cadherin expression (mRNA) (E-cadherin),Existing gaps maintained (cell migration) (MDA-MB-231 cells [1]),"SRC-1 degradation, single agents compared (SRC-1)",Effect on cell invasion (MDA-MB-231 cells [2]),Effect on CSF-1 expression (mRNA normalized to 18S) (CSF-1),Ki [3] [µM]
CC(C)C[C@H](NC(=O)[C@@H](N)CCCNC(=N)N)C(=O)N[C@@H](C)C(=O)N[C@@H](C)C(N)=O [RLAA] (H-RLAA-NH2),no effect,gaps were completely filled,Neither YL2 nor RLAA tetrapeptide per se had any effect,no significant effect,did not significantly affect,–
CC(C)C[C@@H]1NC(=O)[C@H](CCCCN)NC(=O)[C@@](C)(NC(=O)[C@H](CC(C)C)NC(=O)[C@H](CC(=O)O)NC(=O)[C@H](CCC(N)=O)NC(=O)[C@H](CCC(=O)O)NC(=O)[C@@H](NC(=O)[C@@H]2CCCN2C(=O)[C@@H]2CCCN2C(=O)[C@H](CC(C)C)NC(=O)[C@@H](N)CC(C)C)[C@@H](C)O)CCC/C=C\CCC[C@@](C)(C(=O)N[C@@H](Cc2ccc(O)cc2)C(N)=O)NC(=O)[C@H](CC2CCCCC2)NC1=O [YL2] (H-LLPPTEQDL[S5]KL[Cha][S5]Y-NH2; staple (Z) 10-14; N-terminus and C-terminus assumed),no effect,gaps were completely filled,Neither YL2 nor RLAA tetrapeptide per se had any effect,no significant effect,did not significantly affect,–
B1,–,–,–,–,–,4.2
